Experiments:
[1] = molecular target: haloalkane dehalogenase LinB (Sphingobium indicum, UniProt D4Z2G1); format: biochemical, Sphingomonas paucimobilis UT26
[2] = molecular target: haloalkane dehalogenase DhlA (Xanthobacter autotrophicus, UniProt P22643); format: biochemical, Xanthobacter autotrophicus GJ10
[3] = molecular target: T1, haloalkane dehalogenase DbjA (Bradyrhizobium diazoefficiens, UniProt P59337); format: biochemical, Bradyrhizobium japonicum USDA110
[4] = molecular target: haloalkane dehalogenase DhaA (Rhodococcus rhodochrous, UniProt P0A3G2); format: biochemical, Rhodococcus rhodochrous NCIMB 13064
haloalkane dehalogenase DhaA, sequence (P0A3G2 whole entry): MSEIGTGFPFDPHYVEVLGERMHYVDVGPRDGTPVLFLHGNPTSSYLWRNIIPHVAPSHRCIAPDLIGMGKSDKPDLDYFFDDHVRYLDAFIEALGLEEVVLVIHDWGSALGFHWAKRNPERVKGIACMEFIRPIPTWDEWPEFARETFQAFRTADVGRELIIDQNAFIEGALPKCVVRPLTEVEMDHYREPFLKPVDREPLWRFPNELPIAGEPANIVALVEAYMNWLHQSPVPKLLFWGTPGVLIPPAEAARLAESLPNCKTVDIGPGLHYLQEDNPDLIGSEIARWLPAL

[5] = molecular target: haloalkane dehalogenase LinB L177H (Sphingobium indicum, UniProt D4Z2G1, L177H); format: biochemical
haloalkane dehalogenase LinB L177H, sequence (D4Z2G1 whole entry L177H, looked up): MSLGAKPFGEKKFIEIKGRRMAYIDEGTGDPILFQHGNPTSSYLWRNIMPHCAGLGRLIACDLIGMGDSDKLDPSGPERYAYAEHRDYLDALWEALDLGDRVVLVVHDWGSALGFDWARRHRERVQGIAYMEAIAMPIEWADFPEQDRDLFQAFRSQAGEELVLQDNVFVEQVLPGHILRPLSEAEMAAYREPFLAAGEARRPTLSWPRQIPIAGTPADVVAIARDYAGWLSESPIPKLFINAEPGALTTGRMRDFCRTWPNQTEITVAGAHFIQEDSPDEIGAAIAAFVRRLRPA

[6] = molecular target: haloalkane dehalogenase LinB L177F (Sphingobium indicum, UniProt D4Z2G1, L177F); format: biochemical
haloalkane dehalogenase LinB L177F, sequence (D4Z2G1 whole entry L177F, looked up): as the sequence (D4Z2G1 whole entry L177H, looked up) above, with H177F counted along it

[7] = molecular target: haloalkane dehalogenase LinB wild type (Sphingobium indicum, UniProt D4Z2G1); format: biochemical, Sphingomonas paucimobilis UT26
haloalkane dehalogenase LinB wild type, sequence (D4Z2G1 whole entry): as the sequence (D4Z2G1 whole entry L177H, looked up) above, with H177L counted along it

[8] = molecular target: haloalkane dehalogenase LinB L177S (Sphingobium indicum, UniProt D4Z2G1, L177S); format: biochemical
haloalkane dehalogenase LinB L177S, sequence (D4Z2G1 whole entry L177S, looked up): as the sequence (D4Z2G1 whole entry L177H, looked up) above, with H177S counted along it

[9] = molecular target: haloalkane dehalogenase LinB L177W (Sphingobium indicum, UniProt D4Z2G1, L177W); format: biochemical
haloalkane dehalogenase LinB L177W, sequence (D4Z2G1 whole entry L177W, looked up): as the sequence (D4Z2G1 whole entry L177H, looked up) above, with H177W counted along it

[10] = molecular target: haloalkane dehalogenase LinB L177Q (Sphingobium indicum, UniProt D4Z2G1, L177Q); format: biochemical
haloalkane dehalogenase LinB L177Q, sequence (D4Z2G1 whole entry L177Q, looked up): as the sequence (D4Z2G1 whole entry L177H, looked up) above, with H177Q counted along it

[11] = molecular target: haloalkane dehalogenase LinB L177M (Sphingobium indicum, UniProt D4Z2G1, L177M); format: biochemical
haloalkane dehalogenase LinB L177M, sequence (D4Z2G1 whole entry L177M, looked up): as the sequence (D4Z2G1 whole entry L177H, looked up) above, with H177M counted along it

[12] = molecular target: haloalkane dehalogenase LinB L177C (Sphingobium indicum, UniProt D4Z2G1, L177C); format: biochemical
haloalkane dehalogenase LinB L177C, sequence (D4Z2G1 whole entry L177C, looked up): as the sequence (D4Z2G1 whole entry L177H, looked up) above, with H177C counted along it

[13] = molecular target: haloalkane dehalogenase LinB L177Y (Sphingobium indicum, UniProt D4Z2G1, L177Y); format: biochemical
haloalkane dehalogenase LinB L177Y, sequence (D4Z2G1 whole entry L177Y, looked up): as the sequence (D4Z2G1 whole entry L177H, looked up) above, with H177Y counted along it

[14] = molecular target: haloalkane dehalogenase LinB L177K (Sphingobium indicum, UniProt D4Z2G1, L177K); format: biochemical
haloalkane dehalogenase LinB L177K, sequence (D4Z2G1 whole entry L177K, looked up): as the sequence (D4Z2G1 whole entry L177H, looked up) above, with H177K counted along it

[15] = molecular target: haloalkane dehalogenase LinB L177T (Sphingobium indicum, UniProt D4Z2G1, L177T); format: biochemical
haloalkane dehalogenase LinB L177T, sequence (D4Z2G1 whole entry L177T, looked up): as the sequence (D4Z2G1 whole entry L177H, looked up) above, with H177T counted along it

[16] = molecular target: haloalkane dehalogenase LinB L177G (Sphingobium indicum, UniProt D4Z2G1, L177G); format: biochemical
haloalkane dehalogenase LinB L177G, sequence (D4Z2G1 whole entry L177G, looked up): as the sequence (D4Z2G1 whole entry L177H, looked up) above, with H177G counted along it

[17] = molecular target: haloalkane dehalogenase LinB L177V (Sphingobium indicum, UniProt D4Z2G1, L177V); format: biochemical
haloalkane dehalogenase LinB L177V, sequence (D4Z2G1 whole entry L177V, looked up): as the sequence (D4Z2G1 whole entry L177H, looked up) above, with H177V counted along it

[18] = molecular target: haloalkane dehalogenase LinB L177D (Sphingobium indicum, UniProt D4Z2G1, L177D); format: biochemical
haloalkane dehalogenase LinB L177D, sequence (D4Z2G1 whole entry L177D, looked up): as the sequence (D4Z2G1 whole entry L177H, looked up) above, with H177D counted along it

[19] = molecular target: haloalkane dehalogenase LinB L177A (Sphingobium indicum, UniProt D4Z2G1, L177A); format: biochemical
haloalkane dehalogenase LinB L177A, sequence (D4Z2G1 whole entry L177A, looked up): as the sequence (D4Z2G1 whole entry L177H, looked up) above, with H177A counted along it

[20] = molecular target: haloalkane dehalogenase LinB L177R (Sphingobium indicum, UniProt D4Z2G1, L177R); format: biochemical
haloalkane dehalogenase LinB L177R, sequence (D4Z2G1 whole entry L177R, looked up): as the sequence (D4Z2G1 whole entry L177H, looked up) above, with H177R counted along it

[21] = molecular target: T1, haloalkane dehalogenase DbjA; format: biochemical, Bradyrhizobium japonicum USDA110; details: for Relative enzyme activity (%) 5% of solvent / Relative enzyme activity (%) 10% of solvent / Relative enzyme activity (%) 20% of solvent: pH 8.6

haloalkane dehalogenase DhlA, sequence (P22643 whole entry): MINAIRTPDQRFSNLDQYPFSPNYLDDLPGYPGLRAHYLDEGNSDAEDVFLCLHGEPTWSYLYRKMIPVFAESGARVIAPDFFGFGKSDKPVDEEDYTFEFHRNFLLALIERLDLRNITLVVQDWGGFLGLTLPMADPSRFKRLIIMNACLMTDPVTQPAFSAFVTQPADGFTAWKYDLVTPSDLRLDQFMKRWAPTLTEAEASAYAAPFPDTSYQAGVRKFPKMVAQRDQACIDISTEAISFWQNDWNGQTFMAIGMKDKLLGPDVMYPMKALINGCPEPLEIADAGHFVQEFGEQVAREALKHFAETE
haloalkane dehalogenase LinB, sequence (D4Z2G1 whole entry): as the sequence (D4Z2G1 whole entry L177H, looked up) above, with H177L counted along it
T1 sequence (P59337 whole entry): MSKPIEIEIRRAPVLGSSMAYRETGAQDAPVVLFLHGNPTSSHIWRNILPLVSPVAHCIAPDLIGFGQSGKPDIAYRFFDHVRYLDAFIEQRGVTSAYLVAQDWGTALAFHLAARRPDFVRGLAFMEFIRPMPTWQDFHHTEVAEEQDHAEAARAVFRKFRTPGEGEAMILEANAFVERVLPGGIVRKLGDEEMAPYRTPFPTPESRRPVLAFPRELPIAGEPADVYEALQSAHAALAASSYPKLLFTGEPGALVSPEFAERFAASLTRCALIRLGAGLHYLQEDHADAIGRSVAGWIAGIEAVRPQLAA

Compound: CC(C)(C)C(Br)CBr (racemic) [1,2-dibromo-3,3-dimethylbutane]
- E-values LinB [1]: 1.1

Compound: CCC(Br)CBr (racemic) [1,2-dibromobutane]
- E-values DhlA [2]: 1.1
- E-values DbjA [3]: 2.7
- E-values LinB [1]: 10
- E-values DhaA [4]: 2

Compound: CC(Br)CCBr (racemic) [1,3-dibromobutane]
- E-values DhlA [2]: 2
- E-values DbjA [3]: 1.4
- E-values LinB [1]: 4.6
- E-values DhaA [4]: 1.3

Compound: CC(Cl)CCCl (racemic) [1,3-dichlorobutane]
- E-values DhlA [2]: 2.8
- E-values DbjA [3]: 1.0
- E-values LinB [1]: 2.6
- E-values DhaA [4]: 1.6

Compound: CC(CCl)CBr (racemic) [1-bromo-3-chloro-2-methylpropane]
- E-values DhlA [2]: 1.8
- E-values DbjA [3]: 1.4
- E-values LinB [1]: 1.8
- E-values DhaA [4]: 1.7

Compound: CCCCCC(C)Br (racemic) [2-bromoheptane]
- E-values DhlA [2]: 2.4
- E-values DbjA [3]: 28
- E-values LinB [1]: 2.8
- E-values DhaA [4]: 2.9

Compound: CCCCC(C)Br (racemic) [2-bromohexane]
- E-values DbjA [3]: 35
- E-values LinB [1]: 12
- E-values DhaA [4]: 4

Compound: COC(=O)C(Br)CCBr (racemic) [methyl 2,4-dibromobutyrate]
- E-values DhlA [2]: 1.6
- E-values DbjA [3]: 1.3
- E-values LinB [1]: 1.9
- E-values DhaA [4]: 1

Compound: BrCCBr [1,2-dibromoethane]
- Relative activities (% of wt) L177H [5]: 55 % of wt
- Relative activities (% of wt) L177F [6]: 70 % of wt
- Relative activities (% of wt) wt1 [7]: 100 % of wt
- Relative activities (% of wt) wt2 [7]: 100 % of wt
- Relative activities (% of wt) L177S [8]: 84 % of wt
- Relative activities (% of wt) L177W [9]: 7 % of wt
- Relative activities (% of wt) L177Q [10]: 123 % of wt
- Relative activities (% of wt) L177M [11]: 126 % of wt
- Relative activities (% of wt) L177C [12]: 52 % of wt
- Relative activities (% of wt) L177Y [13]: 16 % of wt
- Relative activities (% of wt) L177K [14]: 97 % of wt
- Relative activities (% of wt) L177T [15]: 107 % of wt
- Relative activities (% of wt) L177G [16]: 78 % of wt
- Relative activities (% of wt) L177V [17]: 84 % of wt
- Km [18]: 14 mM
- Relative activities (% of wt) L177D [18]: 77 % of wt
- Relative activities (% of wt) L177A [19]: 155 % of wt
- Relative activities (% of wt) L177R [20]: 68 % of wt

Compound: CC(Br)CBr (stereo not shown) [1,2-dibromopropane]
- E-values DhlA [2]: 3
- E-values DbjA [3]: 2.6
- E-values LinB [1]: 1.3
- E-values DhaA [4]: 1.3

Compound: CC(Cl)CCl (stereo not shown) [1,2-dichloropropane]
- E-values DhlA [2]: 2

Compound: ICCCI [1,3-diidopropane]
- Relative activities (% of wt) L177H [5]: 140 % of wt
- Relative activities (% of wt) L177F [6]: 130 % of wt
- Relative activities (% of wt) wt1 [7]: 100 % of wt
- Relative activities (% of wt) wt2 [7]: 100 % of wt
- Relative activities (% of wt) L177S [8]: 123 % of wt
- Relative activities (% of wt) L177W [9]: 117 % of wt
- Relative activities (% of wt) L177Q [10]: 159 % of wt
- Relative activities (% of wt) L177M [11]: 202 % of wt
- Relative activities (% of wt) L177C [12]: 192 % of wt
- Relative activities (% of wt) L177Y [13]: 102 % of wt
- Relative activities (% of wt) L177K [14]: 132 % of wt
- Relative activities (% of wt) L177T [15]: 108 % of wt
- Relative activities (% of wt) L177G [16]: 164 % of wt
- Relative activities (% of wt) L177V [17]: 206 % of wt
- Relative activities (% of wt) L177D [18]: 209 % of wt
- Relative activities (% of wt) L177A [19]: 360 % of wt
- Relative activities (% of wt) L177R [20]: 127 % of wt

Compound: C1COCCO1 [1,4-dioxane]
- DbjA activity in the presence of the solvent in the reaction medium [21]: increasing activity
- Relative enzyme activity (%) 5% of solvent [21]: 121.4 ± 3.9%
- Relative enzyme activity (%) 10% of solvent [21]: 139.9 ± 7.8%
- Relative enzyme activity (%) 20% of solvent [21]: 152.0 ± 9.5%

Compound: CCCCBr [1-bromobutane]
- Relative activities (% of wt) L177H [5]: 224 % of wt
- Relative activities (% of wt) L177F [6]: 243 % of wt
- Relative activities (% of wt) wt1 [7]: 100 % of wt
- Relative activities (% of wt) wt2 [7]: 100 % of wt
- Relative activities (% of wt) L177S [8]: 381 % of wt
- Relative activities (% of wt) L177W [9]: 60 % of wt
- Relative activities (% of wt) L177Q [10]: 458 % of wt
- Relative activities (% of wt) L177M [11]: 227 % of wt
- Relative activities (% of wt) L177C [12]: 243 % of wt
- Relative activities (% of wt) L177Y [13]: 112 % of wt
- Relative activities (% of wt) L177K [14]: 201 % of wt
- Relative activities (% of wt) L177T [15]: 553 % of wt
- Relative activities (% of wt) L177G [16]: 380 % of wt
- Relative activities (% of wt) L177V [17]: 132 % of wt
- Relative activities (% of wt) L177D [18]: 347 % of wt
- Relative activities (% of wt) L177A [19]: 356 % of wt
- Relative activities (% of wt) L177R [20]: 165 % of wt

Compound: CCCCCl [1-chlorobutane]
- Km [18]: 21.9 mM

Compound: CCCCI [1-iodobutane]
- Relative activities (% of wt) L177H [5]: 208 % of wt
- Relative activities (% of wt) L177F [6]: 126 % of wt
- Relative activities (% of wt) wt1 [7]: 100 % of wt
- Relative activities (% of wt) wt2 [7]: 100 % of wt
- Relative activities (% of wt) L177S [8]: 363 % of wt
- Relative activities (% of wt) L177W [9]: 58 % of wt
- Relative activities (% of wt) L177Q [10]: 373 % of wt
- Relative activities (% of wt) L177M [11]: 187 % of wt
- Relative activities (% of wt) L177C [12]: 210 % of wt
- Relative activities (% of wt) L177Y [13]: 97 % of wt
- Relative activities (% of wt) L177K [14]: 131 % of wt
- Relative activities (% of wt) L177T [15]: 424 % of wt
- Relative activities (% of wt) L177G [16]: 344 % of wt
- Relative activities (% of wt) L177V [17]: 101 % of wt
- Relative activities (% of wt) L177D [18]: 259 % of wt
- Relative activities (% of wt) L177A [19]: 133 % of wt
- Relative activities (% of wt) L177R [20]: 161 % of wt

Compound: C=C(C)CCl [3-chloro-2-methylpropene]
- Relative activities (% of wt) L177H [5]: 82 % of wt
- Relative activities (% of wt) L177F [6]: 98 % of wt
- Relative activities (% of wt) wt1 [7]: 100 % of wt
- Relative activities (% of wt) wt2 [7]: 100 % of wt
- Relative activities (% of wt) L177S [8]: 65 % of wt
- Relative activities (% of wt) L177W [9]: 91 % of wt
- Relative activities (% of wt) L177Q [10]: 138 % of wt
- Relative activities (% of wt) L177M [11]: 100 % of wt
- Relative activities (% of wt) L177C [12]: 157 % of wt
- Relative activities (% of wt) L177Y [13]: 78 % of wt
- Relative activities (% of wt) L177K [14]: 110 % of wt
- Relative activities (% of wt) L177T [15]: 96 % of wt
- Relative activities (% of wt) L177G [16]: 200 % of wt
- Relative activities (% of wt) L177V [17]: 79 % of wt
- Relative activities (% of wt) L177D [18]: 25 % of wt
- Relative activities (% of wt) L177A [19]: 199 % of wt
- Relative activities (% of wt) L177R [20]: 83 % of wt

Compound: NC=O [Formamide]
- Relative enzyme activity (%) 5% of solvent [21]: 73.4 ± 7.6%
- Relative enzyme activity (%) 10% of solvent [21]: 76.3 ± 5.0%
- Relative enzyme activity (%) 20% of solvent [21]: 16.3 ± 0.6%

Compound: CO [Methanol]
- DbjA activity in the presence of the solvent in the reaction medium [21]: increasing activity
- Relative enzyme activity (%) 5% of solvent [21]: 93.5 ± 0.9%
- Relative enzyme activity (%) 10% of solvent [21]: 128.7 ± 3.5%
- Relative enzyme activity (%) 20% of solvent [21]: 160.7 ± 2.0%

Compound: CN(C)C=O [N,N-dimethylformamide]
- Relative enzyme activity (%) 5% of solvent [21]: 110.5 ± 11.6%
- Relative enzyme activity (%) 10% of solvent [21]: 112.6 ± 3.8%
- Relative enzyme activity (%) 20% of solvent [21]: 101.9 ± 1.0%

Compound: CC(C)=O [acetone]
- DbjA activity in the presence of the solvent in the reaction medium [21]: increasing activity
- increase of reaction rate compared to that in the glycine buffer [21]: 1.68 times
- Relative enzyme activity (%) 5% of solvent [21]: 113.8 ± 7.3%
- Relative enzyme activity (%) 10% of solvent [21]: 140.3 ± 2.1%
- Relative enzyme activity (%) 20% of solvent [21]: 168.2 ± 3.1%

Compound: CC#N [acetonitrile]
- Relative enzyme activity (%) 5% of solvent [21]: 117.5 ± 8.9%
- Relative enzyme activity (%) 10% of solvent [21]: 124.1 ± 1.0%
- Relative enzyme activity (%) 20% of solvent [21]: 0.0 ± 0.0%

Compound: OCCO [ethyleneglycol]
- Relative enzyme activity (%) 5% of solvent [21]: 87.1 ± 9.8%
- Relative enzyme activity (%) 10% of solvent [21]: 80.5 ± 8.9%
- Relative enzyme activity (%) 20% of solvent [21]: 109.8 ± 4.0%

Compound: C1CCOC1 [tetrahydrofurane]
- Relative enzyme activity (%) 5% of solvent [21]: 111.9 ± 13.4%
- Relative enzyme activity (%) 10% of solvent [21]: 96.9 ± 9.0%
- Relative enzyme activity (%) 20% of solvent [21]: 0.0 ± 0.0%

From patent US7632666B2 (priority 2005, dated 2009)
